Experimental data taken from paper PMC7450938, “Prenatal to early postnatal neurotrophic treatment prevents Alzheimer-like behavior and pathology in mice” (Alzheimer's Research & Therapy, 2020).

Tests used:
[1] = tested on: Ts65Dn trisomic Down syndrome mouse model; conditions: Ts65Dn mice, prenatal to early postnatal treatment; cited from earlier work
Source text: The prenatal to early postnatal period is highly susceptible to epigenomic dysregulation with implications for health. […] Stress and hormones, such as glucocorticoids, testosterone, and estradiol, mediate the development of the brain during critical prenatal and early postnatal periods.

P-tau (Ser396/404) = experiment: PHF-1 immunofluorescence, hippocampal CA1; assay type: in vivo, mouse; conditions: hippocampal CA1 region, 22-month-old 3xTg-AD mice; P021 diet E8-PND21; vs 3xTg-Vh
Experimental: (§1) We treated 2- to 3-month-old pregnant 3xTg-AD and WT mothers with compound P021 in mouse chow, or with vehicle feed as control at E8 until their offspring/pups reached PND21, at which point the offspring were separated and put on standard mouse chow (Fig. 1). Treatment was administered as 60 nmol peptide/g formulated diet (Research Diets; New Brunswick, NJ, USA). The vehicle-treated control animals received the same diet but without the peptide. On average, each mouse consumed ~ 2.7 g diet/day.
(§2) The complete right hemisphere was immersion-fixed in 4% paraformaldehyde in 0.1 M PBS for 24–48 h, followed by cryoprotection in a 30% sucrose solution at 4 °C overnight. Later, the 40-μm-thick sagittal sections were cut on a freezing microtome. […]
(§3) Immunofluorescence staining was performed on free-floating sections, and every 12th brain section was chosen for densitometry and quantification. For immunohistochemical quantification, six brain sections of four animals per group were analyzed. All stainings for fluorescence-intensity quantification were carried out under identical conditions, including all tissue samples for a particular staining processed at the same time, and experimental and control sections photographed under identical settings. […]

Aβ plaques [2] = experiment: Thioflavin-S-positive plaque load; assay type: in vivo; conditions: subiculum, 22-month-old 3xTg-AD mice; 6 sections per mouse, n = 4 mice; P021 diet E8-PND21
Experimental: as §1
Thioflavin-S–positive (TS+) plaque load was quantified on every 12th section (roughly six sections per set) of four animals from 22-month-old groups. A modified thioflavin-S staining protocol was used as follows. Free-floating brain sections were washed in large volumes of distilled water, incubated in 0.25% KMnO4 for 4–5 min, washed with water, and treated with a solution of 1% K2S2O5 and 1% oxalic acid for 40–60 s until the brown color was completely washed out. Sections were then incubated with 0.05% thioflavin-S in water in the dark for 8 min, followed by differentiation in 80% ethanol twice for 1 min each. […] The images were taken by using a Nikon 90i fluorescent microscope, threshold using ImageJ (v.1.46r), and TS+ plaque load was quantified in the hippocampus CA1 and subiculum areas.

Aβ plaques [3] = experiment: Aβ immunofluorescence, amyloid plaques in brain sections; assay type: in vivo, mouse; conditions: 22-month-old 3xTg-AD mice, P021 diet E8-PND21
Experimental: as §1, §2, §3

[4] = cited from earlier work
Source text: A central objective of the field of dementia research is to inhibit, or to at least effectively modify, the course of AD, but at present, no effective treatment or cure for AD is available. CNTF is a pluripotent neurotrophic factor that has a potent effect on the development and maintenance of the nervous system, inducing neuronal survival and differentiation by stimulating gene expression of sensory, sympathetic, and motor neurons. However, the clinical therapeutic usage of recombinant neurotrophic factors is limited because of the insurmountable hurdles of unfavorable pharmacokinetic ...

APP = experiment: Western blots of p-APP (Thr668) in hippocampus; assay type: in vivo, mouse; conditions: 22-month-old 3xTg-AD mice, normalized with GAPDH, n = 4, P021 diet E8-PND21
Experimental: as §1
The tissue from the left cerebral hemisphere from each mouse stored at− 80 °C was homogenized in a Teflon-glass homogenizer to generate 10% (w/v) homogenate. […] Each homogenate was boiled in 2× Laemmli sample buffer for 5 min, and protein concentration was measured by PierceTM 660-nm protein assay (Thermo Scientific; Rockford, IL, USA).
The samples were subjected to 10% SDS-PAGE and electro-transferred onto Immobilon-P membranes (EMD Millipore; Billerica, MA, USA). […] Densitometric quantification of protein bands in Western blots was analyzed using Multi Gauge version 3.0 software (FUJIFILM North America; Valhalla, NY, USA).

Ac-DGGL^AG-NH2 [P021, 4-mer CNTF small molecule peptide mimetic to which adamantylated glycine was added at the C-terminal]
developmental delay and cognitive impairment at adult age [1]: rescues developmental delay and at adult age cognitive impairment
PHF-1 immunofluorescence, percent area (P-tau (Ser396/404)): attenuated
plaque burden by thioflavin-S staining (Aβ plaques [2]): a significant decrease
plaque-occupied area (Aβ immunofluorescence) (Aβ plaques [3]; one half of the brain, 6 sections per mouse, n = 4 mice): significantly decreased
amyloid plaques detected by Aβ antibody (Aβ plaques [3]; subiculum, piriform cortex, forebrain and hippocampus, vs 3xTg-Vh): markedly reduced
BBB permeability [4]: BBB-permeable
solubility in water [4]: water-soluble
systemic adverse effects [4]: does not induce the systemic adverse effects associated with recombinant CNTF or BDNF
pharmacokinetic properties ([4]; oral administration): suitable pharmacokinetic properties for oral administration
level of phosphorylation of APP at Thr668 (APP): rescued
